Laboratory results from paper PMC6114107, “Characterization and validation of Entamoeba histolytica pantothenate kinase as a novel anti-amebic drug target” (International Journal for Parasitology: Drugs and Drug …, 2018).
Like-named read-outs stand apart in the source and are kept apart here.

Experiments:
[1] = target: T1, E. histolytica pantothenate kinase (Entamoeba histolytica, UniProt B1N2P3); assay: Phosphoryl donor specificity of EhPanK; type: biochemical; settings: donor 100 μM, 0.2 mM pantothenate, 10 mM MgCl2, 37 °C, pH 6; relative to ATP; ND = not detected
T1 sequence (B1N2P3 entry or part of it): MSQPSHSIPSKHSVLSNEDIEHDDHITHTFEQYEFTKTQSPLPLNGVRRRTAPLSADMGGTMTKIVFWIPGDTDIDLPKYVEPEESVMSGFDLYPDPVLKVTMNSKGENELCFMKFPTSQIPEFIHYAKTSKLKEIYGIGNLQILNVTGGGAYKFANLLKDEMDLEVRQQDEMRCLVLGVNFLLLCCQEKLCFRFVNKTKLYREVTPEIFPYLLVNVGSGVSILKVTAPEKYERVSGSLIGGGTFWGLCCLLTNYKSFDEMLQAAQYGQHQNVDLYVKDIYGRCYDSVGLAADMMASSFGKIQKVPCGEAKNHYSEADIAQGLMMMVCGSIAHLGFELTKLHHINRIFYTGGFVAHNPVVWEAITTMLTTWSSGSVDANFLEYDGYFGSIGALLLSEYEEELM
Text: EhPanK utilized various nucleoside triphosphates, ATP, CTP, GTP, UTP, dATP, and polyphosphates, as well as deoxynucleotides as phosphoryl donors, with ATP being the best phosphate donor (Table 2).

[2] = target: E. histolytica PanK (EhPanK) recombinant enzyme (Entamoeba histolytica, UniProt B1N2P3); assay: biochemical
E. histolytica PanK (EhPanK) recombinant enzyme, sequence (B1N2P3 entry or part of it): as above
Method: We screened 244 compounds from the Kitasato Natural Products Library for inhibition of EhPanK activity. Initially, each compound was dissolved in 50% DMSO and water at a final concentration of 1 mg/mL. Enzymatic reactions were carried out on a black 384-well microtiter plate with a 20 μL reaction mixture composed of 19 μl enzyme mix (100 μM pantothenate, 100 μM ATP, 50 ng of EhPanK recombinant enzyme in kinase buffer (see above) and 1 μl of the individual compounds (final concentration 50 μg/mL or 25–200 μM) at 37 °C for 2 h. After the kinase reaction, ADP was measured using ADP Hunter™ Plus kinase assay kit as described previously. Inhibition values were measured in triplicate.
Fig. S8. Dose-response data of inhibitors against EhPanK inhibitors. IC50 values were determined by dose-response-inhibition using GraphPad Prism (GraphPad Software Inc., San Diego, USA). Data are shown in mean of three replicates.

[3] = target: T1, E. histolytica pantothenate kinase; type: biochemical
[4] = tested on: MRC-5 cells (human fibroblast); assay: Cytotoxicity against MRC-5 cells (WST-8, 48 h); type: cell-based; settings: MRC5, MRC-5, 48 h, mean ± SEM, read-out: IC50 Normal human cell (MRC-5)
Method: Human fibroblast cells, MRC-5, were cultured on 96-well flat bottom plates at a density of 1.5 × 10^4 cells/well with 100 μl of MEM medium (Life Technologie) containing 10% fetal bovine serum (Hana-nesco Bio, Tokyo, Japan) and 1% penicillin-streptomycin (Life Technologies). Cells were incubated at 37 °C with 5% CO2 for 48 h. Approximately 100 μl of MEM medium containing 5 μl of each compound dissolved in 50% DMSO in water were added to each well. After the plates were incubated for 48 h, approximately 10 μl of WST-8 (Dojindo, Kumamoto, Japan) was added to each well and the plate was incubated at 37 °C with 5% CO2 for 2 h. The absorbance was measured at 450 nm by spectrophotometer (SH-9000Lab, Corona Electric, Ibaraki, Japan). Growth of MRC-5 cells was measured in duplicate. Staurosporine (Kitasato Natural Products Library) was used as a positive (cytotoxic) control in a concentration range of 0.5 pM to 0.1 nM IC50 values were calculated as described previously.

[5] = tested on: recombinant EhPanK; assay: Regulation of EhPanK by CoA, acetyl CoA and malonyl CoA (double-reciprocal plots); type: biochemical, Entamoeba histolytica; settings: inhibitor 0, 0.5, 2 mM; for Mechanism of inhibition with respect to ATP: various ATP, 0.2 mM pantothenate; for Mechanism of inhibition with respect to pantothenate: various pantothenate, 100 μM ATP
Text: PanK from other organisms was reported to be negatively regulated by allosteric inhibition with CoA, acetyl CoA, and malonyl CoA ([Calder et al., 1999]; [Takagi et al., 2010]; [Vallari et al., 1987]). […] The mechanisms of inhibition by acetyl CoA were not clear but seemed to be the mixed type with respect to ATP and pantothenate (Fig. 3).
Fig. 2 Effect of CoA, acetyl CoA, and malonyl CoA on the pantothenate kinase activities. Relative activities of EhPanK in the presence of various concentrations of inhibitors to those without inhibitors are shown. […] The assays were carried out three times independently, and the results are shown as means ± SEM of triplicates.
Fig. 3 Double-reciprocal plots of the recombinant EhPanK in the presence of CoA (A and B), malonyl CoA (C and D), or acetyl CoA (E and F). The enzymatic activities were determined with various concentrations of ATP and 0.2 mM pantothenate (A, C, and E) or various concentrations of pantothenate and 100 μM ATP (B, D, and F), in the presence of three concentrations of inhibitors (0, 0.5, and 2 mM). Data are shown in means ± SEM of triplicate analyses.

[6] = tested on: E. histolytica trophozoite (HM-1:IMSS cl6); assay: Anti-amebic activity, trophozoite viability (WST-1, 48 h); type: cell-based, Entamoeba histolytica; settings: HM-1:IMSS cl6 trophozoites, anaerobic, 35.5 °C, mean ± SEM
Method: Approximately 1 × 10^4 trophozoites of E. histolytica clonal strain HM-1:IMSS cl6 in 200 μl of BI-S-33 medium were dispensed into each well of a 96-well plate and incubated at 35.5 °C for 2 h. Medium was then removed and replaced with 200 μl of BI-S-33 medium that contained various concentrations of each compound. […] The plate was incubated under anaerobic conditions at 35.5 °C for 48 h. After the medium was removed, 100 μl of pre-warmed Opti-MEM I (Life Technologies, Grand Islands, NY, USA) containing one-tenth volume of WST-1 (Roche, Mannheim, Germany) was added. The viability of trophozoites was estimated by measuring absorbance at 450 nm by SpectraMax® Paradigm® (Molecular Devices, CA, USA). Metronidazole was used as positive control at final concentrations of 0.1–10 μM and 0.5% DMSO as negative control. Each assay was performed in triplicate. IC50 values were calculated by least squares curve fitting of the dose inhibition curves using GraphPad Prism (GraphPad Software Inc., San Diego, USA).

[7] = recombinant EhPanK, 100 μM pantothenate, 100 μM ATP, 37 °C, 2 h, mean ± SEM of three replicates, read-out: IC50 against EhPanK activity
[8] = cation 5 mM, 0.2 mM pantothenate, 37 °C, pH 6.0, relative to MgCl2, ND = not detected

Molecule | IC50 [4] | IC50 [2, 7] | IC50 ([6]; Entamoeba histolytica) | other results
Polyphosphate | – | – | – | Relative activity (phosphoryl donor) [1]: 16.2 ± 2.5%
CCCCC/C=C\CCC(=O)N[C@H]1[C@H](Oc2c3cc4cc2Oc2ccc(cc2Cl)[C@@H](O[C@@H]2O[C@H](CO)[C@@H](O)[C@H](O)[C@H]2NC(C)=O)[C@@H]2NC(=O)[C@H](NC(=O)[C@@H]4NC(=O)[C@H]4NC(=O)[C@@H](Cc5ccc(c(Cl)c5)O3)NC(=O)[C@H](N)c3ccc(O)c(c3)Oc3cc(O)cc4c3)c3ccc(O)c(c3)-c3c(O[C@H]4O[C@H](CO)[C@@H](O)[C@H](O)[C@@H]4O)cc(O)cc3[C@@H](C(=O)O)NC2=O)O[C@H](CO)[C@@H](O)[C@@H]1O [Teicoplanin] | – | – | – | IC50 ([2]; read-out: IC50 against EhPanK activity, recombinant EhPanK, 100 μM pantothenate, 100 μM ATP, 37 °C, 2 h, mean ± SEM of three replicates): 26.3 ± 2.6 µM
[Cl-].[Cl-].[Co+2] [CoCl2] | – | – | – | Relative activity (metal) ([3]; pH 6): 74.2 ± 6.1%
CS[C@H]1SC[C@H]2C(=O)N(C)[C@@H](C(C)C)C(=O)OC[C@@H](NC(=O)c3cnc4ccccc4n3)C(=O)N[C@@H](C)C(=O)N(C)[C@@H]1C(=O)N(C)[C@@H](C(C)C)C(=O)OC[C@@H](NC(=O)c1cnc3ccccc3n1)C(=O)N[C@@H](C)C(=O)N2C [Echinomycin] | < 0.38 µM | 77.8 ± 4.4 µM | – | –
Nc1ncnc2c1ncn2[C@H]1C[C@H](O)[C@@H](COP(=O)(O)OP(=O)(O)OP(=O)(O)O)O1 [dATP] | – | – | – | Relative activity (phosphoryl donor) [1]: 19.3 ± 4.3%
CC(=O)SCCNC(=O)CCNC(=O)[C@H](O)C(C)(C)COP(=O)(O)OP(=O)(O)OC[C@H]1O[C@@H](n2cnc3c(N)ncnc32)[C@H](O)[C@@H]1OP(=O)(O)O [acetyl CoA] | – | – | – | Mechanism of inhibition with respect to ATP [5]: mixed type; Mechanism of inhibition with respect to pantothenate [5]: mixed type
[Cl][Mn][Cl] [MnCl2] | – | – | – | Relative activity (metal) [3, 8]: 83.2 ± 2.0%
CC(/C=C/C(=O)NO)=C\[C@@H](C)C(=O)c1ccc(N(C)C)cc1 [Trichostatin] | 2.62 ± 0.49 µM | 310 ± 14.9 µM | – | –
Cc1cn([C@H]2C[C@H](O)[C@@H](COP(=O)(O)OP(=O)(O)OP(=O)(O)O)O2)c(=O)[nH]c1=O [TTP] | – | – | – | Relative activity (phosphoryl donor) [1]: 5.4 ± 1.9%
O=C(Cc1cccs1)N[C@@H]1C(=O)N2C(C(=O)[O-])=C(C[n+]3ccccc3)CS[C@H]12 [Cephaloridine] | 48.2 ± 3.61 µM | 230 ± 10.1 µM | 246 ± 34.9 µM | –
O=C1OC2(OC=C(c3ccccc3)C2=O)c2ccccc21 (stereo not shown) [Fluorescamine] | 288 ± 17.8 µM | – | 168 ± 20.1 µM | IC50 ([2]; read-out: IC50 against EhPanK activity): 346 ± 14.7 µM
[Cl-].[Cl-].[Mg+2] [MgCl2] | – | – | – | Relative activity (metal) [3, 8]: 100.0 ± 0.0%
COc1cccc2c1C(=O)C1=C(C[C@@H](CC(=O)O)O[C@@H]1C)C2=O [O-methylnanaomycin A] | 19 ± 0.49 µM | 284 ± 28.7 µM | – | –
Nc1ccn([C@@H]2O[C@H](COP(=O)(O)OP(=O)(O)OP(=O)(O)O)[C@@H](O)[C@H]2O)c(=O)n1 [CTP] | – | – | – | Relative activity (phosphoryl donor) [1]: 1.4 ± 0.2%
[Cl][Fe][Cl] [FeCl2] | – | – | – | Relative activity (metal) [3, 8]: 72.8 ± 1.7%
C[C@H]1O[C@H](O[C@H]2[C@H](O)[C@@H](O)[C@@H](O)[C@H](O)[C@@H]2O)[C@@H](N)C[C@@H]1NC(=N)C(=O)O [Kasugamycin] | 87.1 ± 7.22 µM | – | 66.2 ± 13.7 µM | IC50 [2]: 254 ± 4.7 µM

Molecule | IC50 [4] | IC50 [2, 7] | IC50 ([6]; Entamoeba histolytica) | other results
CC(C)(COP(=O)(O)OP(=O)(O)OC[C@H]1O[C@@H](n2cnc3c(N)ncnc32)[C@H](O)[C@@H]1OP(=O)(O)O)[C@@H](O)C(=O)NCCC(=O)NCCSC(=O)CC(=O)O [malonyl CoA] | – | – | – | Mechanism of inhibition with respect to ATP [5]: competitive; Mechanism of inhibition with respect to pantothenate [5]: non-competitive
LiCl2 | – | – | – | Relative activity (metal) [3, 8]: 34.5 ± 1.8%
CC(=O)[C@H]1O[C@@H](Oc2ccc(/C=C(\C)C(=O)N[C@@H]3[C@H](O)[C@@H](O)[C@H]4OCO[C@H]4[C@@H]3O)cc2O)[C@@H](O)[C@@H]1O [Hygromycin A] | > 196 µM | 194 ± 17.8 µM | 142 ± 16.3 µM | –
Nc1nc2c(ncn2[C@@H]2O[C@H](COP(=O)(O)OP(=O)(O)OP(=O)(O)O)[C@@H](O)[C@H]2O)c(=O)[nH]1 [GTP] | – | – | – | Relative activity (phosphoryl donor) [1]: 78.8 ± 4.9%
CCC1OC(=O)CC(O)C(C)C(O[C@@H]2O[C@H](C)C[C@H](N(C)C)[C@H]2O)C(CC=O)CC(C)C(=O)/C=C/C2(C)OC2C1C (stereo partly shown) [Rosamycin] | 34.4 ± 2.71 µM | 166 ± 2 µM | 56.3 ± 11.7 µM | –
[Cl-].[Cl-].[Zn+2] [ZnCl2] | – | – | – | Relative activity (metal) [3, 8]: 3.9 ± 0.7%
O=c1ccn([C@@H]2O[C@H](COP(=O)(O)OP(=O)(O)OP(=O)(O)O)[C@@H](O)[C@H]2O)c(=O)[nH]1 [UTP] | – | – | – | Relative activity (phosphoryl donor) [1]: 16.6 ± 1.2%
[Ca+2].[Cl-].[Cl-] [CaCl2] | – | – | – | Relative activity (metal) [3, 8]: 17.0 ± 3.0%
[Cl][Cu][Cl] [CuCl2] | – | – | – | Relative activity (metal) [3, 8]: 84.3 ± 4.7%
O=P(O)(O)OP(=O)(O)OP(=O)(O)O [Tripolyphosphate] | – | – | – | Relative activity (phosphoryl donor) [1]: 16.9 ± 0.8%
CC[C@H]1OC(=O)[C@H](C)[C@@H](O[C@H]2C[C@@](C)(OC)[C@@H](O)[C@H](C)O2)[C@H](C)[C@@H](O[C@@H]2O[C@H](C)C[C@H](N(C)C)[C@H]2O)[C@](C)(O)C[C@@H](C)C(=O)[C@H](C)[C@@H](O)[C@]1(C)O [Erythromycin A] | > 136 µM | 131 ± 6 µM | 156 ± 20.6 µM | –
Cc1ncc([N+](=O)[O-])n1CCO [Metronidazole] | > 100 µM | – | 0.66 ± 0.05 µM | –
[H]/N=C(/N)N[C@H]1[C@H](O)[C@@H](O)[C@H](O[C@@H]2O[C@@H](C)[C@](O)(C=O)[C@H]2O[C@@H]2O[C@@H](CO)[C@H](O)[C@@H](O)[C@@H]2NC)[C@@H](N/C(N)=N\[H])[C@@H]1O [Streptomycin] | > 172 µM | 155 ± 10.1 µM | 77.5 ± 1.52 µM | –
NC[C@@H]1O[C@H](O[C@H]2[C@@H](O)[C@H](O[C@@H]3[C@@H](O)[C@H](N)C[C@H](N)[C@H]3O[C@H]3O[C@H](CN)[C@@H](O)[C@H](O)[C@H]3N)O[C@@H]2CO)[C@H](N)[C@@H](O)[C@@H]1O [Neomycin] | > 163 µM | 147 ± 6.8 µM | < 20 µM | IC50 [6]: 10.6 ± 1.12 µM
CC(/C=C/C(O)=C1/C(=O)CNC1=O)=C\C(C)C1OC2(C)OC(C(=O)C3OC32C)C1C (stereo not shown) [Tirandamycin A] | 144 ± 3.8 µM | 229 ± 3.4 µM | < 20 µM | IC50 [6]: 13.7 ± 4.85 µM
Nc1ncnc2c1ncn2[C@@H]1O[C@H](COP(=O)(O)OP(=O)(O)OP(=O)(O)O)[C@@H](O)[C@H]1O [ATP] | – | – | – | Relative activity (phosphoryl donor) [1]: 100.0 ± 4.1%
